{
  "source": "patent US20060067913A1",
  "about": "“HCV therapy” (priority 2003, published 2006)",
  "key": {"[1]": {"experimental": "In this Example, Human Ezrin Peptide therapy comprised oral administration of a 2 mg/2 ml aqueous solution of HEP1 to HCV patients who were also infected with HIV. The patients were treated twice a day for 10 days followed by once a day for 20 days in the absence of any other anti-HIV or anti-HCV therapy. Blood samples from patients were analysed before treatment and 30 days after the end of the 30 day treatment period."}, "[2]": {"conditions": "children; cited from earlier work"}},
  "note": "Where a SMILES comes first, the peptide text is derived from it.",
  "data": [
    {"smiles": "CC(C)[C@H](NC(=O)[C@@H](NC(=O)[C@H](CCC(=O)O)NC(=O)[C@H](CCCNC(=N)N)NC(=O)[C@H](CCCNC(=N)N)NC(=O)[C@H](CCCCN)NC(=O)[C@H](CCCCN)NC(=O)[C@H](CCC(=O)O)NC(=O)[C@@H](N)[C@@H](C)O)[C@@H](C)O)C(=O)N[C@@H](CCC(=O)O)C(=O)N[C@@H](CCCNC(=N)N)C(=O)N[C@@H](CCC(=O)O)C(=O)N[C@@H](CCCCN)C(=O)N[C@@H](CCC(=O)O)C(=O)O", "note": "[HEP1] (H-TEKKRRETVEREKE-OH)", "values": [
      {"measurement": "CD4/CD8 index", "setting": "[1]; HIV+HCV infected patients", "value": "improved"},
      {"measurement": "average increase of CD4 cells", "setting": "[1]; HIV+HCV infected patients", "value": 70, "unit": "cells per microlitre"},
      {"measurement": "patients with increased CD4 cells", "setting": "[1]; HIV+HCV infected patients", "value": "18 of 19"},
      {"measurement": "side effects or adverse events", "setting": "[1]; during treatment with HEP1", "value": "No side effects or adverse events were observed"},
      {"measurement": "side-effects or adverse reactions", "setting": "[2]", "value": "No side-effects or adverse reactions"}
    ]}
  ]
}
